According to patent US9873693B2 (Sunesis Pharmaceuticals, Inc., priority 2006, dated 2018):
pEC50, pIC50: −log10 of the molar value. Read-outs that look alike come from different tables or passages of the source.

How the values were obtained:
phosphorylated PDK1 = phosphorylated PDK1 (Homo sapiens (Human), UniProt O15530); assay: PDK1 kinase assay (coupled PDK1/AKT/FAM-crosstide, IMAP); type: biochemical; conditions: 0.5 nM phosphorylated PDK1, 24 μM ATP; read-out: Inhibition of phospo-PDK1 in vitro IC50
Phospho-T308 Akt = Phospho-T308 Akt detection using immunoblot (western blot) in PC-3 cells; type: cell-based; conditions: for Reduction of Cellular Levels of Akt p308 By Western: 2 hour incubation, concentration not given in Table 2; for inhibition at 5 µM / inhibition at 2 µM: Homo sapiens, read-out: Percent Inhibition of phospho-Akt (308) By Western
Experimental: A Phospho-T308 Akt detection using immunoblot (western blot) analysis was performed as described below.
PC-3 prostate cells were plated in a 6 well plate in F12K media (Invitrogen, Carlsbad, Calif.) plus 10% FBS (Invitrogen) and placed in incubator overnight. The stock of compound A was a 50 mM solution in DMSO. 1000× dilutions of the compound were made in DMSO. The 1000× dilutions include, 35 mM, 25 mM, 15 mM, 10 mM, 7 mM, 5 mM, and 1 mM. 1 μl of the 1000× dilutions was added to 1 ml F12K media without serum for final concentrations of […]. 1 μl of DMSO was added to 1 ml media with no serum for a control. The 1 ml DMSO or compound plus media was then added to the cells. Following a 2 hour incubation at 37° C., cells were harvested and washed in PBS and subjected to centrifugation at 3,300 rpm for 5 minutes. Cells were lysed in 100 μl of Bio Rad Bioplex buffer containing protease inhibitors (BioRad, Hercules, Calif.) for 30 minutes on ice followed by centrifugation at 13,000 rpm for 5 minutes. The protein content of the supernatant was assayed using DC Protein Assay (BioRad). 25 μl of protein was added to 4× sample buffer (Invitrogen) and sample reducer (Invitrogen) and run on a 4-12% NuPage gel (Invitrogen). Proteins were then transferred to nitrocellulose (Invitrogen). The membrane was blocked in Tris-buffered saline (Sigma, St. Louis, Mo.) plus 0.1% Tween (Sigma) (T-TBS) plus 5% blotting grade milk (BioRad) for 60 minutes. Membranes were then incubated in T-TBS plus 5% BSA (Sigma) plus 1:1000 of anti-phospho akt (Thr 308) (Cell Signaling Technology, Beverly, Mass.) overnight at 4° C. Membranes were washed in T-TBS then incubated in 1:2000 of anti-rabbit-HRP (Cell Signaling) in TTBS plus 5% milk. Membranes were washed again and proteins were visualized with Super Signal West Pico (Pierce, Rockford, Ill.) and using Kodak BioMax MR film (Kodak, Rochester, N.Y.).
Phospho-akt 308 protein bands on the film were quantified using densitometry. An Alpha Imager (Alpha Innotech Corp, San Leandro, Calif.) using AlphaEase FC software version 4.1.0 (Alpha Innotech Corp.) was used to quantitate protein bands. Briefly, a rectangle of equal size was placed around each protein band as well as a background spot on the film. The densitometry values (IDV=Integrated Density Value) obtained for the background spot was then subtracted from the values obtained for the protein bands. These values were used to obtain an EC50 value using non-linear regression analysis in GraphPad Prism Version 4.00 (Graph Pad Prism, San Diego, Calif.). Percent decrease in expression of phosphoh-akt 308 were also measured specifically at 2 μM and 5 μM levels of inhibitor.

phospho-akt (Thr308) = phospho-akt (Thr308) MSD ELISA in PC-3 cells; type: cell-based; conditions: Homo sapiens; for pEC50 / EC50: PC-3, 2 h; for pEC50: read-out: Inhibition of P308 Akt in cells using MSD EC50; for inhibition at 1 µM / inhibition at 10 µM: read-out: Percent Inhibition of phospho-Akt (308) By MSD ELISA; for EC50: read-out: Reduction of Cellular Levels of Akt p308 By MSD ELISA (EC50 μM)
Procedure, shortened: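 Read-out is MSD electrochemiluminescence after lysate capture overnight at 4 degrees and 1 hr RT detection-antibody step. Before lysis, overnight-plated PC-3 cells received three-fold serial dilutions of inhibitor in serum-free medium, with DMSO-only high controls.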

dephosphorylated PDK1 = dephosphorylated PDK1 (Homo sapiens (Human), UniProt O15530); assay: PDK1 kinase assay (coupled PDK1/AKT/FAM-crosstide, IMAP); type: biochemical; conditions: 25 nM un-phosphorylated PDK1, 24 μM ATP; read-out: Inhibition of dephospo-PDK1 in vitro IC50
Procedure, shortened: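 The FAM-crosstide phosphorylation readout was IMAP polarization (ex 485/em 530 nm, 2 h binding), with 4-parameter fits of ΔmP data. The reaction ran 30 min at 25 °C with 24 μM ATP, and contained 25 nM phosphatase-treated PDK1 (aa 51–360) plus 30 nM unphosphorylated AKT2-PIFtide and 100 nM substrate. Buffer was 10 mM Tris pH 7.2, 10 mM MgCl2, 0.01% Triton X-100 and 1 mM DTT.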

Sequence of phosphorylated PDK1 (O15530 51-360): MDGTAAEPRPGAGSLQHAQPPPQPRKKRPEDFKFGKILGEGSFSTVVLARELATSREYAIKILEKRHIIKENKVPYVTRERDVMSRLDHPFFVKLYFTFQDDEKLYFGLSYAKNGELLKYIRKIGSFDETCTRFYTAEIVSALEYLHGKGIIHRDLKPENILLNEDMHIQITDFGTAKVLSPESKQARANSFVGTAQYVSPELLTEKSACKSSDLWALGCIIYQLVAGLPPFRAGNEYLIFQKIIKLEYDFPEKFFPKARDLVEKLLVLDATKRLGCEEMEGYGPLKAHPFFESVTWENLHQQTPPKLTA
Sequence of dephosphorylated PDK1 (O15530 51-360): as above

SMILES | pIC50 (phosphorylated PDK1) | Reduction of Cellular Levels of Akt p308 By Western (Phospho-T308 Akt) | inhibition at 5 µM (Phospho-T308 Akt) | pEC50 (phospho-akt (Thr308); PC-3 cells, 2 hours, no serum) | inhibition at 1 µM (phospho-akt (Thr308); PC-3 cells) | inhibition at 10 µM (phospho-akt (Thr308); PC-3 cells) | EC50 (phospho-akt (Thr308); PC-3 cells, 2 hours, no serum) | inhibition at 2 µM (Phospho-T308 Akt) | pEC50 (phospho-akt (Thr308)) | EC50 (phospho-akt (Thr308)) | pIC50 (dephosphorylated PDK1)
O=C(NCc1cccc(-c2c[nH]c3ncc(F)cc23)c1)c1cccn(Cc2ccc(F)c(F)c2)c1=O [Cpd 10] | > 6.30 | bbb (inhibition of more than 75%) | > 75% | 5.30 to 6.00 | 25 to 75% | > 75% |  |  |  |  | 
O=C(NCc1ccc(-c2c[nH]c3ncc(F)cc23)s1)c1cccn(Cc2ccc(F)c(F)c2)c1=O [Cpd 11] | > 6.30 | bbb (inhibition of more than 75%) | > 75% | > 6.00 |  |  | < 1 µM |  |  |  | 
O=C(NCc1ccc(-c2c[nH]c3ncc(CO)cc23)s1)c1cccn(Cc2ccc(F)c(F)c2)c1=O [Cpd 12] | > 6.30 | bb (inhibition of from 25% to 75%) |  | > 6.00 | 25 to 75% | > 75% |  | 25 to 75% |  |  | 
O=C(NCc1cc(-c2c[nH]c3ncccc23)cs1)c1cccn(Cc2ccc(F)c(F)c2)c1=O [Cpd 17] | > 6.30 | bbb (inhibition of more than 75%) |  | 5.30 to 6.00 | 25 to 75% | > 75% |  | > 75% |  |  | 
CNC(=O)C[C@@H](NC(=O)c1cccn(Cc2ccc(F)c(F)c2)c1=O)c1ccc(-c2c[nH]c3ncccc23)s1 [Cpd 18] | > 6.30 | bb (inhibition of from 25% to 75%) |  | 5.30 to 6.00 |  |  | 1 to 5 µM | 25 to 75% |  |  | 
NC(=O)C[C@@H](NC(=O)c1cccn(Cc2ccc(F)c(F)c2)c1=O)c1ccc(-c2c[nH]c3ncccc23)s1 [Cpd 19] | > 6.30 | bbb (inhibition of more than 75%) |  |  |  |  |  | > 75% | 5.30 to 6.00 | 1 to 5 µM | 
O=C(O)c1cnc2[nH]cc(-c3ccc(CNC(=O)c4cccn(Cc5ccc(F)c(F)c5)c4=O)s3)c2c1 [Cpd 21] | > 6.30 | b (inhibition of less 25%) |  |  |  |  |  | < 25% |  | > 5 µM | 
O=C(NCc1ncc(-c2c[nH]c3ncccc23)s1)c1cccn(Cc2ccc(F)c(F)c2)c1=O [Cpd 132] | > 6.30 | bbb (inhibition of more than 75%) | > 75% | > 6.00 | 25 to 75% | > 75% |  |  |  |  | 
CC(=O)NC[C@@H](NC(=O)c1cccn(Cc2ccc(F)c(F)c2)c1=O)c1nc(-c2c[nH]c3ncccc23)cs1 [Cpd 136] |  |  | 25 to 75% |  |  |  |  |  |  |  | 
O=C(NCc1noc(-c2c[nH]c3ncccc23)n1)c1cc(Cl)cn(Cc2ccc(Cl)c(F)c2)c1=O [Cpd 316] | > 6.30 |  |  |  | 25 to 75% | 25 to 75% |  |  |  |  | > 6.30
Cc1ccc(Cn2cccc(C(=O)NCc3noc(-c4c[nH]c5ncccc45)n3)c2=O)cc1Cl [Cpd 317] | > 6.30 |  |  | < 5.30 | 25 to 75% | > 75% |  |  |  |  | > 6.30
NC(=O)CC[C@@H](NC(=O)c1cccn(Cc2ccc(F)c(F)c2)c1=O)c1nc(-c2c[nH]c3ncccc23)cs1 [Cpd 318] | > 6.30 |  |  |  | < 25% | 25 to 75% |  |  |  |  | > 6.30
O=C(NCc1noc(-c2c[nH]c3ncccc23)n1)c1cc(Cl)cn(Cc2ccc(F)cc2)c1=O [Cpd 319] | > 6.30 |  |  | < 5.30 | < 25% | 25 to 75% |  |  |  |  | > 6.30
CC(C)[C@@H](COc1ccc2[nH]c(=O)[nH]c2c1)NC(=O)c1cccn(Cc2ccc(F)c(F)c2)c1=O [Cpd 320] | 5.00 to 6.30 |  |  |  | < 25% | 25 to 75% |  |  |  |  | > 6.30
O=C(N[C@@H](COc1ccc2[nH]c(=O)[nH]c2c1)Cc1ccccc1)c1cccn(Cc2ccc(F)c(F)c2)c1=O [Cpd 321] | > 6.30 |  |  | < 5.30 | < 25% | > 75% |  |  |  |  | > 6.30
CCC[C@H](COc1ccc2[nH]c(=O)[nH]c2c1)NC(=O)c1cccn(Cc2ccc(F)c(F)c2)c1=O [Cpd 322] | > 6.30 |  |  | 5.30 to 6.00 |  |  | 1 to 5 µM |  |  |  | > 6.30
O=C(NCc1cnc(-c2c[nH]c3ncccc23)s1)c1cccn(Cc2ccc(Cl)c(Cl)c2)c1=O [Cpd 323] | > 6.30 |  |  | 5.30 to 6.00 |  |  | 1 to 5 µM |  |  |  | > 6.30
CNc1nc(-c2ccc(CNC(=O)c3cccn(Cc4ccc(F)c(F)c4)c3=O)s2)cn2ccnc12 [Cpd 325] | 5.00 to 6.30 |  |  | < 5.30 |  |  |  |  |  |  | > 6.30
CNc1nc(-c2cccc(CNC(=O)c3cccn(Cc4ccc(F)c(F)c4)c3=O)c2)cn2ccnc12 [Cpd 326] | 5.00 to 6.30 |  |  | < 5.30 |  |  |  |  |  |  | 5.00 to 6.30
O=C(NCc1cccc(-c2ccc3cn[nH]c3c2)c1)c1cccn(Cc2ccc(F)c(F)c2)c1=O [Cpd 328] | > 6.30 |  |  | < 5.30 |  |  |  |  |  |  | > 6.30
O=C(NCc1cccc(-c2ccc3nccn3c2)c1)c1cccn(Cc2ccc(F)c(F)c2)c1=O [Cpd 336] |  |  | > 75% |  | 25 to 75% | > 75% |  |  |  |  | 
